The values below come from patent US20250288515A1, “METHOD AND COMPOSITION FOR TREATING LUNG DISEASES” (MannKind Corporation, priority 2022, published 2025).

A short description of this data set: Pharmacokinetic study in rats, pulmonary insufflation versus intravenous injection. The data set is classed as in vivo. As to conditions: male Sprague Dawley rats, single dose 0.8 mg/kg, samples 10-240 minutes; FIG. 5. The procedure:
Pharmacokinetic studies in rats with Compound I crystalline composite (XC) dry powders-Insufflation studies were performed in rats to deliver doses of dry powders of Compound I, a protein kinase antagonist. The study was performed to determine the pharmacokinetics profile of compound I dry powders made by the process as described above following pulmonary insufflation, or intravenous injection of a single dose of the composition administered in solution to male Sprague Dawley (Charles River Laboratories) adult rats, weighing between 200 g and 250 g at the time of the study. Dry powder comprising 22.1 wt % actual drug content were used and tested at 1 mg/ml in solution to deliver a dose of 0.8 mg/kg to 18 rats in each study group. Rats acclimatized and anesthetized prior to experimentation. Lung and blood samples were taken from the rats at 10, 20, 30, 120, and 240 minutes, post drug administration.

Turning to `Cc1cccc(-n2ncc(C)c2-c2cc3cnccc3s2)n1` [compound I, 2 [4-methyl-1-(6-methylpyridin-2yl)-1H-pyrazol-5-yl]thieno-[3,2 c]pyridine], the “Lung content of compound I after insufflation versus IV injection” value is “higher content of compound I was detected in rat lung after insufflation versus IV injection”.
